Results on one molecule are retold here after PMC11724075, “Small-molecule-induced ERBB4 activation to treat heart failure” (Nature Communications, 2025).

pEC50: −log10 of the molar value. Values joined by “and” are separate entries in the source; they are usually repeats but may differ in a detail not shown here. Equal entries are not always repeated. Bounds are passed on as bounds.

Test [1] deals with iAMs. Nature of the test: WST-1 cell viability assay in H2O2-treated iAMs. It counts as cell-based, rat. More on the design: In vitro cell viability assay with WST-1: unit not given here. The procedure:
Following the transfer of 150 µL of culture medium for the ToxiLight assay, 7 µL of WST-1 reagent (Merck, 5015944001) was added directly to the remaining cell culture medium in each well. The cells were incubated at 37 °C for an additional 4 h. After incubation, the absorbance of the samples was measured at 450 nm (690 nm was used as reference wavelength and subtracted) using a microplate reader (Epoch). […]
In general terms: Formazan colour is commonly taken as a measure of viable cells.

The next test concerns the target T1, ERBB2/ERBB3 (Homo sapiens, UniProt P21860).
T1 construct: host or cells: U2OS (osteosarcoma cells), PathHunter engineered line
The test can be described thus: PathHunter U2OS ERBB2/ERBB3 dimerization assay. It counts as cell-based. Particulars: for ERBB3/ERBB2 dimerization signal: relative to signal with 0.1 µM NRG1, single biological replicates. The protocol: PathHunter U2OS ERBB4/ERBB4 (osteosarcoma cells; Eurofins, 93-0961C3), U2OS ERBB2/ERBB4 (osteosarcoma cells; Eurofins, 493-0960C3), ERBB2/ERBB3 (osteosarcoma cells; Eurofins, 93-1042C3) and ERBB1/ERBB1 (osteosarcoma cells; Eurofins, 93-0989C3) dimerization cell lines were cultured according to the manufacturer’s instructions. Briefly, cells were cultured in Cell Culture Reagent 103 (Eurofins, 92-3103 G) supplemented with 250 µg/mL Hygromycin B (Eurofins, 92-0029) and 500 µg/mL G418 (Eurofins, 92-0030), and were maintained at 37 °C in humidified atmosphere of 5% CO2. HCFs (Innoprot, P10454) were cultured in fibroblast medium (Innoprot, P60108) supplemented with 10% (v/v) fetal bovine serum (FBS, Innoprot), 10% (v/v) fibroblast growth supplement (Innoprot), and 1% (v/v) penicillin/streptomycin solution (Innoprot). iAMs[33] (kindly provided by LUMC) were cultured in Advanced DMEM F-12 (Thermo Fisher Scientific, 12634028) supplemented with 2% (v/v) heat-inactivated FBS (Thermo Fisher Scientific, 10270106), 1% (v/v) penicillin/streptomycin (10,000 units/mL and 10 mg/mL respectively, Thermo Fisher Scientific, 15140122), 1× GlutaMAX (Thermo Fisher Scientific, 35050061), and 100 ng/mL doxycycline (Tocris, 4090) for proliferation. To induce differentiation, iAMs were transferred to medium without doxycycline.
U2OS ERBB4/ERBB4 dimerization cells were seeded at a density of 5 × 10^4 cells/well in 100 µL Cell Plating 0 Reagent, in white 96-well plates (PerkinElmer, 6005680) and incubated for 24 h at 37 °C, 5% CO2. […] Next, 110 µL PathHunter Flash Detection Reagent was added to each well and incubated at RT for 1 h after which the luminescence signal was measured using the Luminoskan Ascent (Thermo Fisher Scientific). […] The same experimental set-up was used for the U2OS ERBB2/ERBB4, U2OS ERBB2/ERBB3 and U2OS ERBB1/ERBB1 dimerization cell lines.

Test [2] concerns iAMs. Nature of the test: Bulk RNA sequencing of cardiomyogenically differentiated iAMs. It counts as cell-based, rat. Particulars: EF-1 32 µM, 16 h, log2-fold change ≥0.58, P adj <0.05. The protocol: iAMs were seeded at a density of 6 ×10^6 cells/mL in differentiation medium in 75-cm^2 cell culture flasks (Greiner Bio-One, 658175) and incubated for 9 days (d0 = day of seeding). HCF were seeded at a density of 3 × 10^6 cells/mL in fibroblast medium in 75-cm^2 cell culture flasks. […] Next, cells were lysed using 350 µL buffer RLT (Qiagen) supplemented with β-mercaptoethanol (100:1; Merck, 444203). Total RNA was isolated using the RNeasy Micro Kit (Qiagen, 74104) according to the manufacturer’s protocol, with an extra step of DNase digestion. The concentration and quality of RNA were determined using a Qubit fluorometer (Thermo Fisher Scientific) and 2100 Agilent BioAnalyzer (Agilent Technologies), respectively. Samples with an RNA integrity number >7 were used for library preparation. Sequencing libraries were prepared by Genewiz/Azenta (Leipzig) on cDNA prepared from polyadenylated mRNA. Libraries were sequenced using a NovaSeq 6000 (Illumina) with a read length of 2 ×150 bp.
Gene expression was quantified at the transcript level using Salmon (v1.10.0)[60], with the validatMappings and -gcBias parameters switched on, to the Rnor_6.0 or GRCh38 transcriptome. […] Functional enrichment of DEGs was determined using a hypergeometric test against the Gene Ontology database by using the ClueGO (v2.5.7)[64] module of Cytoscape (v3.9.1)[65] with Benjamini–Hochberg adjusted (FDR) P < 0.05. […]

T1 sequence (P21860 20-1342): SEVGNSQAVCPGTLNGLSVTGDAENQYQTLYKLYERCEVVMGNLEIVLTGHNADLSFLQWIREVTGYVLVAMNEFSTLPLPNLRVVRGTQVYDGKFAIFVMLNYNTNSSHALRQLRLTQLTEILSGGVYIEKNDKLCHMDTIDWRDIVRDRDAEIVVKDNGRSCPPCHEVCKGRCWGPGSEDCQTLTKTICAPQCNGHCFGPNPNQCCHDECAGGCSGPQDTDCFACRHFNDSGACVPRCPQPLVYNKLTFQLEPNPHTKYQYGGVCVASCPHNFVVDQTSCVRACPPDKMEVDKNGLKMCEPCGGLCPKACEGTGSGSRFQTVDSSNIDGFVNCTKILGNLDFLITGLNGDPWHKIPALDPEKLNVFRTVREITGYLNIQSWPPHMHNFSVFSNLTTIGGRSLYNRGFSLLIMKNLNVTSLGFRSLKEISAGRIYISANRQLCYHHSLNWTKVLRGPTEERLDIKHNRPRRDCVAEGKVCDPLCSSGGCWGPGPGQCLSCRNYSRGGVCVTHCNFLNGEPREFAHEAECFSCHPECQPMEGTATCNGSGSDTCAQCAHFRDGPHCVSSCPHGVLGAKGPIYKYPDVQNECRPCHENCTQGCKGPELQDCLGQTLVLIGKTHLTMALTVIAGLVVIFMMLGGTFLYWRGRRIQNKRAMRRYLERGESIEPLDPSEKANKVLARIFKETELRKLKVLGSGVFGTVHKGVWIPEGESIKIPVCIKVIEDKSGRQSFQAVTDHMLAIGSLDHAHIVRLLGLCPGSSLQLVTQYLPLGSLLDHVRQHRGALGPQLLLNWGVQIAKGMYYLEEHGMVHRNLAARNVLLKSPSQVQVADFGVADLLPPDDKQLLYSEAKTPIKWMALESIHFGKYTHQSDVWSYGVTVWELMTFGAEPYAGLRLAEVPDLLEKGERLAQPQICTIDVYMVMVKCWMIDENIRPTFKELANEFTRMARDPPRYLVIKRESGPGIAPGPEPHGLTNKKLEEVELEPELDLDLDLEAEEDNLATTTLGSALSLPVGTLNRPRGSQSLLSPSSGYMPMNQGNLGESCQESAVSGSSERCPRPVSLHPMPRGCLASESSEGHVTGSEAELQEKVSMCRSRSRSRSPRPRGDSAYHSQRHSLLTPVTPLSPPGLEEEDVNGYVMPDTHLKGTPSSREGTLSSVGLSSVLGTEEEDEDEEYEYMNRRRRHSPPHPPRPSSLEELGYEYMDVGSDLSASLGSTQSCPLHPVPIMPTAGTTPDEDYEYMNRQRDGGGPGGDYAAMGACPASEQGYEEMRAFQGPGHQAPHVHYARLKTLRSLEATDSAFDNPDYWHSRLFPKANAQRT
T1 sequence (P04626 23-1255, further chain): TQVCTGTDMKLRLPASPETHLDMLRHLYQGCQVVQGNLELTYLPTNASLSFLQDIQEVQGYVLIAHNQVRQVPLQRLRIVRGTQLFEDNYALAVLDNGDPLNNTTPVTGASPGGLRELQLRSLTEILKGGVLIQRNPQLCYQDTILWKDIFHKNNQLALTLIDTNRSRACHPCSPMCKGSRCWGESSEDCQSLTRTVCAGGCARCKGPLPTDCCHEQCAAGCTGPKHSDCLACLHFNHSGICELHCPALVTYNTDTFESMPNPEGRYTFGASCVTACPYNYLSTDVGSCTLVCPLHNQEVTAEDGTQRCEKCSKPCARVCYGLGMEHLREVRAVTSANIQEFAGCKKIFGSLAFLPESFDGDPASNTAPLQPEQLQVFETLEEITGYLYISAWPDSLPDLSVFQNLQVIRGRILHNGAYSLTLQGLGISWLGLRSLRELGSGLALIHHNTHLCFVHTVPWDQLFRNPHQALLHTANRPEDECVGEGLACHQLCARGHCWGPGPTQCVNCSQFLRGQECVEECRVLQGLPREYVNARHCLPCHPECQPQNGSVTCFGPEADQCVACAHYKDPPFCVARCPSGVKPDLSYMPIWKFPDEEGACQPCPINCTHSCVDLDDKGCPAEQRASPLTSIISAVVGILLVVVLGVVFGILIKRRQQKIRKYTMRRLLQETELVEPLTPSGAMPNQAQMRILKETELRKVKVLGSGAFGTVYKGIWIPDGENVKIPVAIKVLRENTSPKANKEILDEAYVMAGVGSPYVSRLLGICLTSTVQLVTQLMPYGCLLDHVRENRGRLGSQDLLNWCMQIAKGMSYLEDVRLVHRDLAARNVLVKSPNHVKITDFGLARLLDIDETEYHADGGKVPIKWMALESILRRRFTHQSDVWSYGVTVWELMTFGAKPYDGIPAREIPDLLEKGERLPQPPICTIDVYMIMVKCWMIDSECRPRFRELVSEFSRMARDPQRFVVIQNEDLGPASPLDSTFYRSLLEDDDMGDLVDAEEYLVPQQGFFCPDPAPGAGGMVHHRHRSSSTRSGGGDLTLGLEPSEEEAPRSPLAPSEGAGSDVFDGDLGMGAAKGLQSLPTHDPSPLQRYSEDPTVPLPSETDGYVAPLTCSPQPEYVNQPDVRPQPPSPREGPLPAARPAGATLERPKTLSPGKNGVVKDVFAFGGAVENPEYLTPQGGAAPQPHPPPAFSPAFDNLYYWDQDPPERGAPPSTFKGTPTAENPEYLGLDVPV

For orientation: pEC50 means the negative decadic logarithm of the EC50, by convention in mol/L. For `O=C(NC1CC1)C(Sc1nc2ccccc2c(=O)n1C1CCCC1)c1ccccc1` (centres unmarked) [EF-1], the “cell viability, WST-1 absorbance (in words)” value with iAMs [1] (100 µM H2O2, pre-treatment with EF-1) is reported as “significantly increased cell viability”. Besides, the “In vitro cell viability assay with WST-1” value in the test with iAMs [1] (H2O2/EF-1, individual replicates) is 1.268 and 0.9224 and 0.7959 and 0.7633 and 0.6939 and 1.2898 and 0.9164 and 0.8058 and 0.7767 and 0.7185 and 1.306 and 0.9585 and 0.8456 and 0.8168 and 0.7703 and 1.242 and 0.9643 and 0.8304 and 0.8393 and 0.7321. For the same molecule, the pEC50 at ERBB2/ERBB3 is below 4.49. Besides, the “stimulatory effect on ERBB2/ERBB3 heterodimerization (in words)” value at ERBB2/ERBB3 is “lower compared to ERBB4 homodimerization”. Besides, the ERBB3/ERBB2 dimerization signal at ERBB2/ERBB3 (3.125e-8 M) was 0; at ERBB2/ERBB3 (6.25e-8 M), 4.35 and 0.16 and -2.68 and -0.63 and -0.56; on ERBB2/ERBB3 (1.25e-7 M) it was 2.37 and 0.16 and -2.68 and -1.68 and -1.97; on ERBB2/ERBB3 (2.5e-7 M), 0.62 and 4.11 and 0.43 and -3.27 and -3.43; at ERBB2/ERBB3 (5e-7 M) it was 0.97 and 1.82 and 6.28 and 0.82 and -2.96 and -1.11; at ERBB2/ERBB3 (1e-6 M), 0.96 and 9.29 and 2.03 and -1.53 and -0.18. Moreover, the ERBB3/ERBB2 dimerization signal at ERBB2/ERBB3 (2e-6 M) was 1.34 and 1.02 and 9.84 and 3.13 and 0.57 and 2.12; at ERBB2/ERBB3 (4e-6 M) it was 3.1 and 10.27 and 4.36 and 4.61 and 5.16; on ERBB2/ERBB3 (8e-6 M), 4.89 and 3.3 and 12.92 and 4.35 and 9.79 and 9.65; at ERBB2/ERBB3 (1.6e-5 M), 11.23 and 14.98 and 10.81 and 10.98 and 13.88; on ERBB2/ERBB3 (3.2e-5 M) it was 23.82 and 14.98 and 24 and 17.43 and 15.59 and 14.95. Also, in the test on iAMs [2], the “number of significantly downregulated genes compared to Veh” value came out at 1120. For the same molecule, the “number of significantly upregulated genes compared to Veh” value in the test on iAMs [2] was 354.
